Assay results taken from US20080248511A1, “METHODS TO QUENCH LIGHT FROM OPTICAL REACTIONS” (priority 2007, published 2008).

Key:
firefly luciferase = firefly luciferase (Photinus pyralis, UniProt P08659); assay: biochemical; conditions: 0.5% detergent in Luciferase Assay Reagent; read-out: Retained Firefly Luciferase Luminescence (%)
Description: The retained luminescence for each luciferase was calculated by dividing the luminescence in the presence of the detergent by the luminescence in the absence of the test detergent. The selectivity value for each of the test detergents was determined by dividing the retained firefly luciferase luminescence by the retained Renilla luciferase luminescence.
A set of detergents (Table 2; Sigma-Aldrich) was added at 0.5% (from a 5% or 10% stock solution) to either Luciferase Assay Reagent (Promega) or Renilla Luciferase Assay Reagent (Promega) and allowed to equilibrate at room temperature.
The firefly luciferase and Renilla luciferase enzymes were diluted as follows. Firefly luciferase was diluted to 14 ng/ml in Phosphate Buffered Saline (PBS) containing 0.1% of the protein carrier Prionex® (Pentapharm). Renilla luciferase was diluted to 10 ng/ml in 1× Renilla Luciferase Lysis Buffer (Promega) containing 0.1% Prionex®. The Renilla Luciferase Lysis Buffer […] detergent micelles when using the Renilla Luciferase Assay Reagent. In the absence of other detergents, this prevents sequestering of coelenterazine which inhibits Renilla luciferase-mediated luminescence.
The luciferase reactions were initiated by adding 40 μl of either the firefly or Renilla luciferase enzyme solution to 200 μl of the appropriate reagent solution (firefly luciferase enzyme solution+firefly luciferase reagent solution or Renilla luciferase enzyme solution+Renilla luciferase reagent solution, respectively). The reactions were performed in an opaque white, 96-well plate and luminescence was measured for 0.5 seconds per well using a Turner BioSystems Veritas™ Microplate luminometer. The retained firefly luciferase and Renilla luciferase luminescence, as well as the selectivity values for each detergent, were calculated (Table 2).

Renilla luciferase = molecular target: T1, Renilla luciferase (Renilla reniformis, UniProt P27652); assay: biochemical; format: biochemical
T1 sequence (P27652 1-311): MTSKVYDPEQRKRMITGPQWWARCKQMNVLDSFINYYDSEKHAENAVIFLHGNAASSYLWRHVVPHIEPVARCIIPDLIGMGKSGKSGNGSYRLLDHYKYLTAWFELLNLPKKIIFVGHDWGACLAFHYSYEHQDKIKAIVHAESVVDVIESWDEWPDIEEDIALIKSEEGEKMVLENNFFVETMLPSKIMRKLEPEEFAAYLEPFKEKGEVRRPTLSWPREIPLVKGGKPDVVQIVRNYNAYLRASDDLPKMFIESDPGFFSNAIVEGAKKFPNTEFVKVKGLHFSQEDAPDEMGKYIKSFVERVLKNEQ

firefly luciferase, sequence (P08659 whole entry): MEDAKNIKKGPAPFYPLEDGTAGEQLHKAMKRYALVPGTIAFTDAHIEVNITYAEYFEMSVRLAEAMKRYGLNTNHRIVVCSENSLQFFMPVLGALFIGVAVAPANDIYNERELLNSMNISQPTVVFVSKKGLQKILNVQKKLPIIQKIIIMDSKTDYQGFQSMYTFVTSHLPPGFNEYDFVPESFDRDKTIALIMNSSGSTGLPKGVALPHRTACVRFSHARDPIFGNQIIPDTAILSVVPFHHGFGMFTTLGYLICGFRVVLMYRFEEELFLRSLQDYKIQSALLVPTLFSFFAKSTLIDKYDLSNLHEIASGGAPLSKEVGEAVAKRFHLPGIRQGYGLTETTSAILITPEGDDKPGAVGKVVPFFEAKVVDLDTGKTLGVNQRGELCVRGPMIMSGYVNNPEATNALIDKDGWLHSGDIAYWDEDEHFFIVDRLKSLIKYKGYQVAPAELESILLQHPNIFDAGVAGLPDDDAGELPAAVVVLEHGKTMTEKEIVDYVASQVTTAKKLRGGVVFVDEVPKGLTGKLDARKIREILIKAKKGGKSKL

Q: CCCCCCCCCCCC[N+](C)(C)Cc1ccccc1.[Br-] [Benzyldimethyldodecylammonium bromide] was tested. Which remaining activity at 0.5 % (firefly luciferase) did it give?
A: The remaining activity at 0.5 % was 20.7%.

Q: And the remaining activity at 0.5 % (Renilla luciferase; 0.5% detergent in Renilla Luciferase Assay Reagent, read-out: Retained Renilla Luciferase Luminescence (%))?
A: Its remaining activity at 0.5 % is 0.08%.

Q: And the “Selectivity Value” (Renilla luciferase; retained firefly / retained Renilla, 0.5% detergent)?
A: Its value is 259.9.
